Laboratory results: US10376520B2, “Methods for the treatment of cardiovascular disorders” (Galapagos NV, priority 2015, dated 2019)

Test system: RA patients
Experiment: [HDL] determination, Study 1 (RA patients, add-on to MTX)
Type: in vivo, human
Description: Double-blind, placebo-controlled add on study in subjects with moderately to severely active RA who have an inadequate response to methotrexate (MTX) (oral or parenteral).
595 subjects randomized to one of 6 dose regimens of Compound 1 (dosed as a [Compound 1:HCl:3H2O]) (3 dose levels administered either once or twice daily) or placebo on top of each subject's stable dose of MTX.
Compound 1 (dosed as a [Compound 1:HCl:3H2O]) is dosed for twelve weeks once daily (q.d.) (50 mg, 100 mg or 200 mg) or twice daily (b.i.d.) (25 mg, 50 mg or 100 mg); or placebo.
At Week 12, the subjects on placebo who have not achieved 20% improvement in swollen joint count (SJC66) and tender joint count (TJC68) are re-randomized automatically to receive Compound 1 (dosed as a [Compound 1:HCl:3H2O]) either at 100 mg q.d. or 50 mg b.i.d. doses in a blinded fashion; subjects on 50 mg q.d. who have not achieved 20% improvement in SJC66 and TJC68 will be assigned to 100 mg q.d. and subjects on 25 mg b.i.d. that have not achieved a 20% improvement in SJC66 and TJC68 will be assigned to 50 mg b.i.d. Subjects who switch treatment at week 12 are handled as if they discontinued at week 12 for the purpose of statistical analysis, whereas subjects in the other groups will maintain their randomized treatment until Week 24.
This assay relies on a homogeneous enzymatic colorimetric test. In the presence of magnesium ions, dextran sulfate selectively forms water-soluble complexes with LDL, VLDL and chylomicrons which are resistant to PEG-modified enzymes.
The cholesterol concentration of [HDL]-cholesterol is determined enzymatically by cholesterol esterase and cholesterol oxidase coupled with PEG to the amino groups (approx. 40%).
In the presence of peroxidase, the hydrogen peroxide generated reacts with 4-amino-antipyrine and Sodium N-(2-hydroxy-3-sulfopropyl)-3,5-dimethoxyaniline (HSDA) to form a purple-blue dye. The color intensity of this dye is directly proportional to the cholesterol concentration and is measured photometrically.
Human serum and plasma samples [HDL] determination was done on a Roche/Hitachi Cobas c 701/702 system which automatically calculate the analyte concentration of each sample. Samples containing precipitates are centrifuged before performing the assay.

[1] = 2 x 50 mg b.i.d. (N = 85), week 12
[2] = 2 x 100 mg b.i.d. (N = 84), week 1
[3] = 2 x 100 mg b.i.d. (N = 84), week 2
[4] = 2 x 100 mg b.i.d. (N = 84), week 4
[5] = 2 x 100 mg b.i.d. (N = 84), week 8
[6] = 2 x 100 mg b.i.d. (N = 84), week 12
[7] = continued 25 mg b.i.d (N = 69), week 1
[8] = continued 25 mg b.i.d (N = 69), week 2
[9] = continued 25 mg b.i.d (N = 69), week 4
[10] = continued 25 mg b.i.d (N = 69), week 8
[11] = continued 25 mg b.i.d (N = 69), week 12
[12] = continued 25 mg b.i.d (N = 69), week 16
[13] = continued 25 mg b.i.d (N = 69), week 20
[14] = continued 25 mg b.i.d (N = 69), week 24
[15] = continued 50 mg b.i.d. (N = 85), week 1
[16] = continued 50 mg b.i.d. (N = 85), week 2
[17] = continued 50 mg b.i.d. (N = 85), week 4
[18] = continued 50 mg b.i.d. (N = 85), week 8
[19] = continued 50 mg b.i.d. (N = 85), week 12
[20] = continued 50 mg b.i.d. (N = 85), week 16
[21] = continued 50 mg b.i.d. (N = 85), week 20
[22] = continued 50 mg b.i.d. (N = 85), week 24
[23] = continued 50 mg q.d. (N = 63), week 1
[24] = continued 50 mg q.d. (N = 63), week 2

Compound: O=C(Nc1nc2cccc(-c3ccc(CN4CCS(=O)(=O)CC4)cc3)n2n1)C1CC1 [Compound 1, cyclopropanecarboxylic acid {5-[4-(1,1-dioxo-thiomorpholin-4-ylmethyl)-phenyl]-[1,2,4]triazolo[1,5-a]pyridin-2yl}-amide]
- [HDL] Mean CFB - 12 weeks results [1]: 0.10 mmol/L
- [HDL] Mean percentage CFB - 12 weeks results [1]: 9%
- [HDL] Median CFB - 12 weeks results [1]: 0.10 mmol/L
- [HDL] Mean CFB - 12 weeks results [2]: 0.12 mmol/L
- [HDL] Mean percentage CFB - 12 weeks results [2]: 9%
- [HDL] Median CFB - 12 weeks results [2]: 0.10 mmol/L
- [HDL] Mean CFB - 12 weeks results [3]: 0.20 mmol/L
- [HDL] Mean percentage CFB - 12 weeks results [3]: 15%
- [HDL] Median CFB - 12 weeks results [3]: 0.18 mmol/L
- [HDL] Mean CFB - 12 weeks results [4]: 0.25 mmol/L
- [HDL] Mean percentage CFB - 12 weeks results [4]: 20%
- [HDL] Median CFB - 12 weeks results [4]: 0.25 mmol/L
- [HDL] Mean CFB - 12 weeks results [5]: 0.26 mmol/L
- [HDL] Mean percentage CFB - 12 weeks results [5]: 21%
- [HDL] Median CFB - 12 weeks results [5]: 0.25 mmol/L
- [HDL] Mean CFB - 12 weeks results [6]: 0.30 mmol/L
- [HDL] Mean percentage CFB - 12 weeks results [6]: 23%
- [HDL] Median CFB - 12 weeks results [6]: 0.25 mmol/L
- [HDL] Mean CFB - 24 weeks results [7]: 0.01 mmol/L
- [HDL] Mean percentage CFB - 24 weeks results [7]: 0.74%
- [HDL] Median CFB - 24 weeks results [7]: 0.00 mmol/L
- [HDL] Mean CFB - 24 weeks results [8]: 0.05 mmol/L
- [HDL] Mean percentage CFB - 24 weeks results [8]: 3.77%
- [HDL] Median CFB - 24 weeks results [8]: 0.05 mmol/L
- [HDL] Mean CFB - 24 weeks results [9]: 0.07 mmol/L
- [HDL] Mean percentage CFB - 24 weeks results [9]: 5.04%
- [HDL] Median CFB - 24 weeks results [9]: 0.08 mmol/L
- [HDL] Mean CFB - 24 weeks results [10]: 0.08 mmol/L
- [HDL] Mean percentage CFB - 24 weeks results [10]: 6.08%
- [HDL] Median CFB - 24 weeks results [10]: 0.10 mmol/L
- [HDL] Mean CFB - 24 weeks results [11]: 0.07 mmol/L
- [HDL] Mean percentage CFB - 24 weeks results [11]: 5.78%
- [HDL] Median CFB - 24 weeks results [11]: 0.05 mmol/L
- [HDL] Mean CFB - 24 weeks results [12]: 0.08 mmol/L
- [HDL] Mean percentage CFB - 24 weeks results [12]: 6.74%
- [HDL] Median CFB - 24 weeks results [12]: 0.05 mmol/L
- [HDL] Mean CFB - 24 weeks results [13]: 0.05 mmol/L
- [HDL] Mean percentage CFB - 24 weeks results [13]: 5.08%
- [HDL] Median CFB - 24 weeks results [13]: 0.07 mmol/L
- [HDL] Mean CFB - 24 weeks results [14]: 0.08 mmol/L
- [HDL] Mean percentage CFB - 24 weeks results [14]: 6.59%
- [HDL] Median CFB - 24 weeks results [14]: 0.09 mmol/L
- [HDL] Mean CFB - 24 weeks results [15]: 0.03 mmol/L
- [HDL] Mean percentage CFB - 24 weeks results [15]: 4.29%
- [HDL] Median CFB - 24 weeks results [15]: 0.05 mmol/L
- [HDL] Mean CFB - 24 weeks results [16]: 0.12 mmol/L
- [HDL] Mean percentage CFB - 24 weeks results [16]: 9.99%
- [HDL] Median CFB - 24 weeks results [16]: 0.10 mmol/L
- [HDL] Mean CFB - 24 weeks results [17]: 0.13 mmol/L
- [HDL] Mean percentage CFB - 24 weeks results [17]: 11.50%
- [HDL] Median CFB - 24 weeks results [17]: 0.13 mmol/L
- [HDL] Mean CFB - 24 weeks results [18]: 0.13 mmol/L
- [HDL] Mean percentage CFB - 24 weeks results [18]: 11.21%
- [HDL] Median CFB - 24 weeks results [18]: 0.14 mmol/L
- [HDL] Mean CFB - 24 weeks results [19]: 0.10 mmol/L
- [HDL] Mean percentage CFB - 24 weeks results [19]: 9.27%
- [HDL] Median CFB - 24 weeks results [19]: 0.10 mmol/L
- [HDL] Mean CFB - 24 weeks results [20]: 0.13 mmol/L
- [HDL] Mean percentage CFB - 24 weeks results [20]: 11.13%
- [HDL] Median CFB - 24 weeks results [20]: 0.15 mmol/L
- [HDL] Mean CFB - 24 weeks results [21]: 0.15 mmol/L
- [HDL] Mean percentage CFB - 24 weeks results [21]: 12.24%
- [HDL] Median CFB - 24 weeks results [21]: 0.16 mmol/L
- [HDL] Mean CFB - 24 weeks results [22]: 0.11 mmol/L
- [HDL] Mean percentage CFB - 24 weeks results [22]: 10.05%
- [HDL] Median CFB - 24 weeks results [22]: 0.12 mmol/L
- [HDL] Mean CFB - 24 weeks results [23]: 0.02 mmol/L
- [HDL] Mean percentage CFB - 24 weeks results [23]: 1.75%
- [HDL] Median CFB - 24 weeks results [23]: 0.01 mmol/L
- [HDL] Mean CFB - 24 weeks results [24]: 0.07 mmol/L
- [HDL] Mean percentage CFB - 24 weeks results [24]: 4.74%
- [HDL] Median CFB - 24 weeks results [24]: 0.08 mmol/L
- [HDL] Mean CFB - 24 weeks results (continued 50 mg q.d. (N = 63), week 4): 0.06 mmol/L
